Read-outs that look alike come from different tables or passages of the source.
Experiments:
[1] = test system: picornaviruses (CVB1, HRV-A2, HRV-A23, EV-68); test: Anti-picornavirus cytopathic effect (CPE) reduction assay on HeLa H1 cells; format: cell-based; details: HeLa H1 cells, 48 h, category from averaging the EC50 values from four picornaviruses (CVB1, HRV-A2, HRV-A23, EV68), read-out: EC50 values of the compounds determined in the anti-picornavirus assay
In short: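 HeLa H1 cells pre-treated 2 h with serially diluted compound in DMEM/2% FBS, then infected at an MOI giving full CPE in 2 days. After 48 h at 37° C, viability read by CellTiterBlue fluorescence (ex 560/em 590 nm), normalised to infected and uninfected vehicle controls; EC50 by non-linear regression, category from mean of four viruses.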

PLA2G16 = target: T1, PLA2G16 (Homo sapiens, UniProt P53816); test: Enzyme activity assay for PLA2G16 (Red/Green BODIPY PC-A2 fluorescence); format: biochemical; details: His-tagged PLA2G16, 4 min pre-incubation, 2 nM to 50 μM; read-out: IC50 values of the compounds determined in the enzyme activity assay for PLA2G16
T1 construct: Hexa-His (N); made in house; host or cells: E. coli BL21(DE3)
T1 sequence (P53816 1-162): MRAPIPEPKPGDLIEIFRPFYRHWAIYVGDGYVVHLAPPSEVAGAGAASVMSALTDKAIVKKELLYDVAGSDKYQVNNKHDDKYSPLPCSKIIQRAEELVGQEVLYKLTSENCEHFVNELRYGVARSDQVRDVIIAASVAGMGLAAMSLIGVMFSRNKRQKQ
In short: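 N-His-tagged human PLA2G16 from E. coli, Ni-NTA purified. Pre-incubated 4 min with compound (2 nM–50 μM final) in pH 8.5 Tris/NaCl buffer with 5 mM glutathione, then BODIPY PC-A2 in DOPC/DOPG/cholesterol vesicles added. Fluorescence (ex 480/em 530 nm) increase over 10 min taken as activity; IC50 by non-linear regression.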

| Structure (SMILES) | EC50 ([1]; Enterovirus B, HeLa H1, 48 h) [nM] | IC50 (PLA2G16) [nM] | EC50 [1] [nM] |
| --- | --- | --- | --- |
| O=C(NCC1CC1)C(=O)C1CCC(=O)N1CCc1ccccc1 (stereo not drawn) [FP 253, N-(Cyclopropylmethyl)-2-oxo-2-[5-oxo-1-(2-phenylethyl)pyrrolidin-2-yl]] | 1000 to 10000 | < 1000 | – |
| Cc1ccccc1C(=O)NC(C)C(=O)C(=O)NCC1CC1 (stereo not drawn) [FP 156, N-(Cyclopropylmethyl)-3-[(2-methylphenyl)formamido]-2-oxobutanamide] | 1000 to 10000 | < 1000 | – |
| CC(NS(=O)(=O)c1ccc(F)cc1)C(=O)C(=O)NCC1CC1 (stereo not drawn) [FP 219, N-(Cyclopropylmethyl)-3-(4-fluorobenzenesulfonamido)-2-oxobutanamide] | 1000 to 10000 | < 1000 | – |
| CCCC(=O)N(c1ccccc1OC)C(C)C(=O)C(=O)NCc1cccc(Cl)c1 (stereo not drawn) [FP 143, N-[(3-Chlorophenyl)methyl]-3-[N-(2-methoxyphenyl)butanamido]-2-oxobutanamide] | 1000 to 10000 | < 1000 | – |
| COc1ccccc1N(C=O)C(CC(C)C)C(=O)C(=O)NCc1cccc(Cl)c1 (stereo not drawn) [FP 13, N-[(3-Chlorophenyl)methyl]-3-[N-(2-methoxyphenyl)formamido]-5-methyl-2-oxohexanamide] | < 1000 | < 1000 | – |
| CC1CC(=O)N(Cc2ccccc2)[C@@H]1C(=O)C(=O)NC1CC1 (single isomer, unassigned) [FP 339] | – | 1000 to 10000 | > 10000 |
| CC(C(=O)C(=O)NCC1CC1)N(C=O)CC1CCN(C(=O)c2ccccc2)CC1 (stereo not drawn) [FP 80, 3-{N[(1-Benzoylpiperidin-4-yl)methyl]formamido}-N-(cyclopropylmethyl)-2-oxobutanamide] | > 10000 | 1000 to 10000 | – |
| COc1ccccc1N(C=O)C(C)C(=O)C(=O)NCc1ccccn1 (stereo not drawn) [FP 96, 3-[N-(2-Methoxyphenyl)formamido]-2-oxo-N-[(pyridin-2-yl)methyl]butanamide] | > 10000 | < 1000 | – |
| CC(C)C(=O)N1CCC(NC(=O)C(=O)[C@H]2CCC(=O)N2Cc2ccccc2)CC1 [FP 315, 2-[(2R)-1-Benzyl-5-oxopyrrolidin-2-yl]-N-[1-(2-methylpropanoyl)piperidin-4-yl]-2-oxoacetamide] | 1000 to 10000 | < 1000 | – |
| Cc1noc(CNC(=O)C(=O)[C@H]2CCC(=O)N2Cc2ccccc2)n1 [FP 287, 2-[(2R)-1-Benzyl-5-oxopyrrolidin-2-yl]-N-[(3-methyl-1,2,4-oxadiazol-5-yl)methyl]-2-oxoacetamide] | 1000 to 10000 | < 1000 | – |
| Cc1cccc(C(=O)NC(C)C(=O)C(=O)NCC2CC2)c1 (stereo not drawn) [FP 171, N-(Cyclopropylmethyl)-3-[(3-methylphenyl)formamido]-2-oxobutanamide] | > 10000 | 1000 to 10000 | – |
| Cc1cc(CNC(=O)C(=O)[C@H]2CCC(=O)N2Cc2ccccc2)no1 [FP 289, 2-[(2R)-1-Benzyl-5-oxopyrrolidin-2-yl]-N-[(5-methyl-1,2-oxazol-3-yl)methyl]-2-oxoacetamide] | < 1000 | < 1000 | – |
| CC(C(=O)C(=O)NCC1CCCCC1)N(C=O)CC(F)(F)F (stereo not drawn) [FP 50, N-(Cyclohexylmethyl)-2-oxo-3-[N-(2,2,2-trifluoroethyl)formamido]butanamide] | < 1000 | < 1000 | – |
| CC1(NC(=O)C(=O)C2CCC(=O)N2Cc2ccccc2)CC1 (stereo not drawn) [FP 246, 2-(1-Benzyl-5-oxopyrrolidin-2-yl)-N-(1-methylcyclopropyl)-2-oxoacetamide] | 1000 to 10000 | < 1000 | – |
| CC(C(=O)C(=O)NCC1CC1)N(C=O)C1CCCCC1 (stereo not drawn) [FP 40, 3-(N-Cyclohexylformamido)-N-(cyclopropylmethyl)-2-oxobutanamide] | < 1000 | < 1000 | – |
| CC(C(=O)C(=O)NCc1cccc(Cl)c1)N(C)C(=O)c1ccccc1 (stereo not drawn) [FP 160, N-[(3-Chlorophenyl)methyl]-3-(N-methyl-1-phenylformamido)-2-oxobutanamide] | 1000 to 10000 | < 1000 | – |
| O=C(NCCNC(=O)C1CCC1)C(=O)[C@H]1CCC(=O)N1Cc1ccccc1 [FP 332, 2-[(2R)-1-Benzyl-5-oxopyrrolidin-2-yl]-N-[2-(cyclobutylformamido)ethyl]-2-oxoacetamide] | 1000 to 10000 | < 1000 | – |

| Structure (SMILES) | EC50 ([1]; Enterovirus B, HeLa H1, 48 h) [nM] | IC50 (PLA2G16) [nM] | EC50 [1] [nM] |
| --- | --- | --- | --- |
| CC(C(=O)C(=O)NCC1CCCCC1)N(C=O)CC1CC1 (stereo not drawn) [FP 51, N-(Cyclohexylmethyl)-3-[N-(cyclopropylmethyl)formamido]-2-oxobutanamide] | 1000 to 10000 | < 1000 | – |
| Cc1ccccc1CN1C(=O)CCC1C(=O)C(=O)NC1CC1 (stereo not drawn) [FP 261, N-Cyclopropyl-2-{1-[(2-methylphenyl)methyl]-5-oxopyrrolidin-2-yl}-2-oxoacetamide] | 1000 to 10000 | < 1000 | – |
| CC[C@@H](C)NC(=O)C(=O)C(C)N(C=O)c1ccccc1OC (stereo partly drawn) [FP 102, N-[(2R)-Butan-2-yl]-3-[N-(2-methoxyphenyl)formamido]-2-oxobutanamide] | 1000 to 10000 | < 1000 | – |
| CC(C(=O)C(=O)NCC1CCCCC1)N(C=O)[C@H]1CC[C@@H](NC(=O)OC(C)(C)C)CC1 (stereo partly drawn) [FP 54, tert-Butyl N-[(1s,4s)-4-(N{1-[(cyclohexylmethyl)carbamoyl]-1-oxopropan-2-yl}-formamido)cyclohexyl]carbamate] | > 10000 | < 1000 | – |
| O=C(NCC1CCCCC1)C(=O)C1CCC(=O)N1CC1CCOCC1 (stereo not drawn) [FP 248, N-(Cyclohexylmethyl)-2-{1-[(oxan-4-yl)methyl]-5-oxopyrrolidin-2-yl}-2-oxoacetamide] | < 1000 | < 1000 | – |
| CC(C)CC(OCC1CCOCC1)C(=O)C(=O)NCC1CC1 (stereo not drawn) [FP 130, N-(Cyclopropylmethyl)-5-methyl-3-[(oxan-4-yl)methoxy]-2-oxohexanamide] | 1000 to 10000 | < 1000 | – |
| N#CC1(CNC(=O)C(=O)[C@H]2CCC(=O)N2Cc2ccccc2)CC1 [FP 290, 2-[(2R)-1-Benzyl-5-oxopyrrolidin-2-yl]-N-[(1-cyanocyclopropyl)methyl]-2-oxoacetamide] | 1000 to 10000 | < 1000 | – |
| O=C(NCC1CC1)C(=O)C1CCC(=O)N1CC1CCCC1 (stereo not drawn) [FP 280, 2-[1-(Cyclopentylmethyl)-5-oxopyrrolidin-2-yl]-N-(cyclopropylmethyl)-2-oxoacetamide] | < 1000 | < 1000 | – |
| COC(=O)CNC(=O)C(=O)C(C)N(C=O)Cc1ccccc1 (stereo not drawn) [FP 56, Methyl 2-[3-(N-benzylformamido)-2-oxobutanamido]acetate] | > 10000 | < 1000 | – |
| COc1ccccc1N(C=O)C(C)C(=O)C(=O)NCc1cccnc1 (stereo not drawn) [FP 89, 3-[N-(2-Methoxyphenyl)formamido]-2-oxo-A[(pyridin-3-yl)methyl]butanamide] | > 10000 | < 1000 | – |
| O=C(NC1CC1)C(=O)C1CCC(=O)N1CCc1ccccc1 (stereo not drawn) [FP 251, N-Cyclopropyl-2-oxo-2-[5-oxo-1-(2-phenylethyl)pyrrolidin-2-yl]acetamide] | 1000 to 10000 | < 1000 | – |
| CC(C)NC(=O)[C@H]1C[C@H](NC(=O)C(=O)[C@H]2CCC(=O)N2Cc2ccccc2)C1 [FP 306, (1 r,3r)-3-{2-[(2R)-1-Benzyl-5-oxopyrrolidin-2-yl]-2-oxoacetamido}-N-(propan-2-yl)cyclobutane-1-carboxamide] | 1000 to 10000 | < 1000 | – |
| CC(OC1CCCCC1)C(=O)C(=O)NCC1CCCC1 (stereo not drawn) [FP 127, 3-(Cyclohexyloxy)-N-(cyclopentylmethyl)-2-oxobutanamide] | < 1000 | < 1000 | – |
| CNC(=O)C(=O)C(CC1CCC1)N(C=O)Cc1ccccc1 (stereo not drawn) [FP 196, 3-(N-Benzylformamido)-4-cyclobutyl-N-methyl-2-oxobutanamide] | 1000 to 10000 | < 1000 | – |
| O=C(NC12CC(C1)C2)C(=O)[C@H]1CCC(=O)N1Cc1ccccc1 [FP 291, 2-[(2R)-1-Benzyl-5-oxopyrrolidin-2-yl]-N-{bicyclo[1.1.1]pentan-1-yl}-2-oxoacetamide] | < 1000 | < 1000 | – |
| C[C@@H]1CC(=O)N(Cc2ccccc2)[C@H]1C(=O)C(=O)NC1CC1 (single isomer, unassigned) [FP 340] | < 1000 | < 1000 | – |

From patent publication US11091428B2 (HAPLOGEN GMBH, priority 2016, dated 2021)
